Experimental data reported in US20100119494A1, “METHODS AND COMPOSITIONS RELATED TO MODULATING THE EXTRACELLULAR STEM CELL ENVIRONMENT” (Massachusetts Institute of Technology, priority 2005, published 2010).

Columns and labels:
Type in all cases: cell-based, mouse
ES cells = test: Optimization of culture conditions for differentiation of ES cells into endothelial cells (marker expression); settings: 15% FBS present, LIF absent
Procedure: Mouse embryonic stem cells (J1) (gift from Bevin Engelward, Mass. Institute of Technology, Cambridge, Mass.) were grown in DMEM with 2 mM L-glutamine (GIBCO, Carlsbad, Calif.) adjusted to contain 100 mM sodium pyruvate, 10 mM nonessential amino acids and 1.5 g/L sodium bicarbonate, with 15% fetal bovine serum (Hyclone, South Logan, Utah) and supplemented with 100 units/mL penicillin G (Sigma, St. Louis, Mo.), 100 μg/mL streptomycin sulfate (Sigma), 30 mM beta-mercaptoethanol (Sigma) and 1000 units/ml murine leukemia inhibitory factor, LIF (Chemicon, Temecula, Calif.). The cells were plated in 10 cm^2 cell culture dishes, coated with 0.1% gelatin B (Sigma) and grown at 37° C. in a 5% CO2 humidifier incubator. The culture medium was changed every 2 days. The cells were subcultured at a split ratio of 1:10 when they reached 80% to 90% confluency, using a 0.25% trypsin-EDTA solution (Sigma). To induce formation of embryoid bodies and differentiation into endothelial cells, J1 cells were plated at a density of 1.25×10^5 cells/100 mm dish, or 3×10^4 cells/6 wells and cultured in the absence of LIF. Fresh media was replenished every 2 days.
To optimize the conditions for efficient differentiation of ES cells into endothelial cells in vitro, the expression levels of ES cell specific and endothelial cell specific markers were analyzed at different stages of differentiation under different cell culture conditions. Specifically, the effects of cell density, the ECM content (i.e., gelatin, collagen, laminin, matrigel), exogenous addition of growth factors (i.e., VEGF, FGF, HGF and insulin) and different types of serum (i.e., Sigma fetal bovine serum (FBS) and Hyclone FBS) were tested.

[1] = system: phosphorylation of ERK1/2 (MAPK pathway); test: Western blot of phospho-ERK normalized to total ERK1/2 in differentiating ES cells; settings: for phosphorylation of ERK1/2: Western blot, FIGS. 14 and 18
Procedure: (§1) Heparinase III (Hep-III) was prepared as described previously (Godavarti, R., et al. (1996) Biochemistry 35, 6846-52). Heparinase I (Hep-I) was a generous gift of Momenta Pharmaceuticals (Cambridge, Mass.). Sodium chlorate and heparin were purchased from Sigma and Cambrex BioWhittaker (East Rutherford, N.J.), respectively. To enzymatically modify the HSGAG glycome signature of the cells, cells were washed with phosphate buffer saline (PBS) and incubated with Hep-I or Hep-III for 30 minutes every day at 37° C. in serum free DMEM. Digested HSGAG residues were removed by washing the cells, and cells were then fed with fresh media. In an additional experiment, cells were cultured with medium containing sodium chlorate, which blocks the sulfation of HSGAGs. In a reversal experiment, heparin was added to the culture to overcome the chlorate induced synthetic block. Treated cells were analyzed for differentiation into endothelial cells between day 3 and day 15. Hep-III was added to the cells at a concentration of 2.5 μg/mL, Hep-I was added at a concentration of 1.5 μg/mL, sodium chlorate at 10 mM and heparin (20 μg). The concentrations of enzymes were optimized to exhaustively cleave all cell surface HSGAGs in the given period of time. All enzymes and chemicals were diluted in serum free DMEM.
For elucidating the biochemical pathways involved downstream of the modulation of the cell surface sugars, protein contents of the embryoid bodies were solubilized by rapid mixing with 3× SDS sample buffer under reducing conditions. Equivalent amounts of protein per sample were electrophoretically resolved on 4-12% gradient polyacrylamide gels and transferred onto a nitrocellulose (0.22 μm) membrane. The membrane was subsequently probed with a phosphor-ERK antibody (1:800 dilution, Cell Signaling Technologies, Danvers, Mass.), which specifically detects the phosphorylated forms of ERK1 and 2. The signal was amplified using a 1:2000 dilution of the appropriate horseradish peroxidase-conjugated secondary antibody (BioRad, Hercules, Calif.), and the immunocomplexes were visualized using enhanced chemiluminescence detection (Amersham Life Science, Piscataway, N.J.). The signal was normalized to the expression of total ERK1/2, which was detected on the same blot using ERK1/2 specific antibodies (Santa Cruz, Santa Cruz, Calif., used at a 1:200 dilution). Quantification of the luminescence signal was carried out by a Kodak 2000R imager.
The MAPK pathway is the downstream convergence point of the signaling of several angiogenic factors such as VEGF, FGF, HGF, EGF, PDGF and angiopoietins (Sengupta, S., et al. (2003) Arterioscler Thromb Vasc Biol 23, 69-75). […]

[2] = system: differentiating ES cells (J1); test: Real-time PCR of Oct-4, VEGF-R2, VE-cadherin and eNOS transcripts in differentiating ES cells; settings: for Oct-4 transcript levels / VE-cadherin transcript levels / eNOS transcript levels: real-time PCR, FIG. 19
Procedure: (§2) Mouse embryonic stem cells (J1) (gift from Bevin Engelward, Mass. Institute of Technology, Cambridge, Mass.) were grown in DMEM with 2 mM L-glutamine (GIBCO, Carlsbad, Calif.) adjusted to contain […] sodium pyruvate, 10 mM nonessential amino acids and 1.5 g/L sodium bicarbonate, with 15% fetal bovine serum (Hyclone, South Logan, Utah) and supplemented with 100 units/mL penicillin G (Sigma, St. Louis, Mo.), 100 μg/mL streptomycin sulfate (Sigma), 30 mM beta-mercaptoethanol (Sigma) and 1000 units/ml murine leukemia inhibitory factor, LIF (Chemicon, Temecula, Calif.). The cells were plated in 10 cm^2 cell culture dishes, coated with 0.1% gelatin B (Sigma) and grown at 37° C. in a 5% CO2 humidifier incubator. The culture medium was changed every 2 days. The cells were subcultured at a split ratio of 1:10 when they reached 80% to 90% confluency, using a 0.25% trypsin-EDTA solution (Sigma). To induce formation of embryoid bodies and differentiation into endothelial cells, J1 cells were plated at a density of 1.25×10^5 cells/100 mm dish, or 3×10^4 cells/6 wells and cultured in the absence of LIF. Fresh media was replenished every 2 days.
as §1
RNA was isolated from J1 cells using TRIzol (Invitrogen, Carlsbad, Calif.) and RNAlater (Qiagen, Valencia, Calif.) according to the manufacturer's protocol. Single-stranded cDNA was generated via oligo-dT primed reverse transcription, and genes serving as markers for differentiation were quantified using an Abi Prism 7700 real-time PCR thermocycler (Applied Biosystems, Foster City, Calif.). Expression levels were obtained for the marker genes Oct-4, VE-cadherin, VEGF-R2, and eNOS, with β-actin used as a control. PCR conditions involved denaturation for 10 min at 95° C., followed by 40 cycles of denaturation for 20 sec at 94° C., and annealing and extension for 1 min at 60° C. cDNA isolated from J1 cells and primers for the described genes were mixed with SYBR Green PCR Mastermix (Applied Biosystems) for real-time quantification according to the manufacturers instructions. Primers used were 5′-[…]-3′ (SEQ ID NO: 1) and 5′-[…]-3′ (SEQ ID NO: 2) for Oct-4; 5′-[…]-3′ (SEQ ID NO: 3) and 5′-[…]-3′ (SEQ ID NO: 4) for VE-cadherin; 5′-[…]-3′ (SEQ ID NO: 5) and 5′-[…]-3′ (SEQ ID NO: 6) for TIE-2; 5′-[…]-3′ (SEQ ID NO: 7) and 5′-[…]-3′ (SEQ ID NO: 8) for VEGF-R2; 5′-[…]-3′ (SEQ ID NO: 9) and 5% […]-3′ (SEQ ID NO: 10) for ENOS; 5′-[…]-'3 (SEQ ID NO: 11) and 5′-[…]-'3 (SEQ ID NO: 12) for 13-actin. The sulfotransferase primers and conditions were chosen. […]

[3] = system: differentiating ES cells (J1); test: Confocal microscopy of vWF and Oct-4 staining in differentiating ES cells; settings: for vWF expression (confocal microscopy): FIG. 15A, treated differentiating ES cells; for Oct-4 levels of differentiating cells (confocal microscopy): FIG. 15B
Procedure: as §2, §1
For microscopic analysis of endothelial cells, the differentiating J1 cells were fixed in cold methanol at designated time points, blocked in goat serum and probed overnight with a rabbit primary antibody against vWF, an endothelial cell marker, or Oct-4, a stem cell marker. The sections were washed and re-probed with a goat secondary antibody coupled to FITC. The nuclei were counterstained with propidium iodide. Images were captured using a […] LSM510 confocal microscope at a 512×512 pixels resolution (Leica, Bannockburn, Ill.). Fluorochromes were excited with 488 nm and 543 nm laser lines, and the images were captured using 505-530 BP and 565-615 BP filters at a 512×512 pixels resolution.
To dissect the role of HSGAG structure in ES cell differentiation, the cell surface and extracellular HSGAG moieties of differentiating ES cells were modified using an enzymatic and pharmacological approach. Specifically, differentiating ES cells were incubated with Hep-I or Hep-III for 30 minutes every day to cleave the cell surface and extracellular matrix (ECM) HSGAGs at structurally distinct sites, or cultured in media supplemented with sodium chlorate, which is a pharmacological inhibitor of HSGAG biosynthesis (Safaiyan, F., et al. (1999) J Biol Chem 274, 36267-73). Hep-I cleaves HSGAGs at highly sulfated regions, and Hep-III cleaves HSGAGs at undersulfated regions (Linhardt, R. J., et al. (1990) Biochemistry 29, 2611-7; Godavarti, R., and Sasisekharan, R. (1996) Biochem Biophys Res Commun 229, 770-7). […]

[4] = system: differentiating ES cells (J1); test: Flow cytometry of vWF in differentiating ES cells after enzymatic or pharmacological modification of HSGAGs; settings: FIG. 12B, Hep-I 1.5 μg/mL or Hep-III 2.5 μg/mL 30 minutes every day, sodium chlorate 10 mM in medium
Procedure: as §2
Heparinase III (Hep-III) was prepared as described previously (Godavarti, R., et al. (1996) Biochemistry 35, 6846-52). […] Treated cells were analyzed for differentiation into endothelial cells between day 3 and day 15. […]
Cells were harvested at various time points during differentiation, incubated with rat monoclonal antibody against CD16/CD32 (1:50 dilution, Pharmingen, San Diego, Calif.) to block Fey receptors and incubated further with a primary antibody against von Willebrand factor (vWF) (Dako (Carpinteria, Calif.), rabbit polyclonal, added at a 1:100 dilution). […] Cells were then washed twice and were incubated with FITC-conjugated secondary antibody (Jackson ImmunoResearch, West Grove, Pa.) in a 1:100 dilution, washed twice and taken up in OptiMEM (GIBCO/BRL, Carlsbad, Calif.) and analyzed on a Becton Dickinson (Franklin Lakes, N.J.) FACScan flow cytometer (excitation 488 nm, argon laser; emission 580/30). […]

[5] = heparin added to sodium chlorate treated ES cells

| Molecule | effect of exogenous addition of growth factors on differentiation into endothelial cells (ES cells) | phosphorylation of ERK1/2 [1] | Oct-4 transcript levels [2] | VE-cadherin transcript levels [2] | eNOS transcript levels [2] | vWF expression (confocal microscopy) [3] | Oct-4 levels of differentiating cells (confocal microscopy) [3] | decrease of the proportion of cells expressing detectable levels of vWF [4] | also measured |
| --- | --- | --- | --- | --- | --- | --- | --- | --- | --- |
| HGF: growth factor added exogenously to the culture | No effects | – | – | – | – | – | – | – | – |
| heparin [reference compound] | – | – | – | – | – | – | – | – | phosphorylation of ERK1/2, reversal of inhibition ([1]; exogenous heparin added to treated cells): inhibition is reversed; VE-cadherin transcript levels, reconstitution [2, 5]: increased; eNOS transcript levels, reconstitution [2, 5]: increased; vWF staining (confocal microscopy), reconstitution ([3]; heparin added to sodium chlorate treated ES cells during differentiation, FIG. 15C): increased vWF staining |
| [O-][Cl+2]([O-])O [sodium chlorate, reference compound] | – | inhibits | no effect | significantly decreased | significantly decreased | inhibitory effects | none of the treatments had significant effects | approximately 5 fold | – |
| insulin: listed among growth factors added exogenously to the culture | No effects | – | – | – | – | – | – | – | – |
| VEGF | No effects | – | – | – | – | – | – | – | – |
| Hep-III: HSGAG-degrading enzyme; cleaves HSGAGs at undersulfated regions (protein, UniProt Q59289 25-659, looked up) Heparin-sulfate lyase: QSSSITRKDFDHINLEYSGLEKVNKAVAAGNYDDAAKALLAYYREKSKAREPDFSNAEKPADIRQPIDKVTREMADKALVHQFQPHKGYGYFDYGKDINWQMWPVKDNEVRWQLHRVKWWQAMALVYHATGDEKYAREWVYQYSDWARKNPLGLSQDNDKFVWRPLEVSDRVQSLPPTFSLFVNSPAFTPAFLMEFLNSYHQQADYLSTHYAEQGNHRLFEAQRNLFAGVSFPEFKDSPRWRQTGISVLNTEIKKQVYADGMQFELSPIYHVAAIDIFLKAYGSAKRVNLEKEFPQSYVQTVENMIMALISISLPDYNTPMFGDSWITDKNFRMAQFASWARVFPANQAIKYFATDGKQGKAPNFLSKALSNAGFYTFRSGWDKNATVMVLKASPPGEFHAQPDNGTFELFIKGRNFTPDAGVFVYSGDEAIMKLRNWYRQTRIHSTLTLDNQNMVITKARQNKWETGNNLDVLTYTNPSYPNLDHQRSVLFINKKYFLVIDRAIGEATGNLGVHWQLKEDSNPVFDKTKNRVYTTYRDGNNLMIQSLNADRTSLNEEEGKVSYVYNKELKRPAFVFEKPKKNAGTQNFVSIVYPYDGQKAPEISIRENKGNDFEKGKLNLTLTINGKQQLVLVP | – | inhibits | no effect | decreased | decreased | inhibitory effects | none of the treatments had significant effects | ~3 fold | – |
| Hep-I: HSGAG-degrading enzyme; cleaves HSGAGs at highly sulfated regions; gift of Momenta Pharmaceuticals (protein, UniProt Q05819 22-384, looked up) Heparin lyase I: QQKKSGNIPYRVNVQADSAKQKAIIDNKWVAVGINKPYALQYDDKLRFNGKPSYRFELKAEDNSLEGYAAGETKGRTELSYSYATTNDFKKFPPSVYQNAQKLKTVYHYGKGICEQGSSRSYTFSVYIPSSFPDNATTIFAQWHGAPSRTLVATPEGEIKTLSIEEFLALYDRMIFKKNIAHDKVEKKDKDGKITYVAGKPNGWKVEQGGYPTLAFGFSKGYFYIKANSDRQWLTDKADRNNANPENSEVMKPYSSEYKTSTIAYKMPFAQFPKDCWITFDVAIDWTKYGKEANTILKPGKLDVMMTYTKNKKPQKAHIVNQQEILIGRNDDDGYYFKFGIYRVGNSTVPVTYNLSGYSETAR | – | inhibits | no effect | significantly decreased | significantly decreased | inhibitory effects | none of the treatments had significant effects | approximately 5 fold | – |
